Patent US20240109855A1, “ANTI-QUORUM SENSING, ANTI-BIOFILM, AND INFLAMMATION ATTENUATING COMPOUNDS, COMPOSITIONS, AND METHODS OF USING SAME” (priority 2021, published 2024)
“Also recorded” adds a separate entry of the source. Like-named read-outs stand apart in the source and are kept apart here.

Assays:
L428 cells = assay: in vitro
Experimental: (§1) The human Hodgkin's Lymphoma derived L428 cell line was used as a model. The cells were grown in RPMI Medium 1640 with 10% FBS, 1% Glutamine and pen-strep (all from Biological Industries, Israel). […] Thirty thousand (30,000) cells/well were placed in 96-well plates with the coumaperine derivatives at different concentrations or with vehicle (DMSO) at a final volume of 200 μl. The plates were incubated for 48 hrs. at 37° C. and 5% CO2 followed by the addition of 50 μl of the XTT reagent tetrazolium-formazan, (Biological Industries, Israel) was added for 2 hrs. at 37° C., 5% CO2. In living cells, mitochondria […] the tetrazolium-formazan salt, thereby generating a color absorbing product at 450 nm. Absorbance was measured at 450 nm and 650 nm in an enzyme-linked immunosorbent assay (ELISA) plate reader (Multiskan Spectrum, Version 1.2), and recorded. Absorption values at 650 nm were subtracted from the blank and the 450 nm values. The results were normalized to the control (treated with DMSO).
(§2) Viability was determined in triplicate in two independent tests. The results were normalized to vehicle (DMSO) treated cells, (100% viability). Mean+SD.

[1] = test system: Agrobacterium tumefaciens (KYC55); assay: Quorum sensing inhibition test with bio-reporter KYC55 (TLC overlay); format: cell-based; details: for Degree of QSI of KYC55: Table 1, coumaperine derivatives, 40 mM in ~20 μL acetonitrile dried on TLC plate, overnight, color intensity; for QSI activity against KYC55, in words: running text; as to Degree of QSI of KYC55: key: −: no inhibition; +: low inhibition; ++: medium inhibition; +++: strong inhibition; as to Degree of quorum sensing inhibition (QSI), KYC55: key: −: no inhibition; +: low inhibition; ++: medium inhibition; +++: strong inhibition
Experimental: (§3) TLC preparation: all derivatives were dissolved in 100% acetonitrile to a concentration of 40 mM. Then placed 20 μlon the same spot on the TLC and let the solvent evaporate before use. CV026: few colonies were transferred to liquid LB (Lenox) for overnight incubation at 30° C. in a 45 degree in orbital shaker. At the O.D. 0.8 3 ml of the starter was added to preheated soft LB agar containing 500 nM of 3-oxo-C6 (Sigma-Aldrich). The mixture was then loaded on the TLC in a glass plate for O.N. incubation in 30° C. The next day inhibition zone was measured, while QS is taking place bacteria produce purple pigment, and when QS is inhibited no pigment is produced. KYC55 (pJZ372) (pJZ384) (pJZ410): 20 μl from the frozen stock into 25 ml AT media (AT buffer×20: 1.57 M KH2PO4 pH=7.3. AT salts mix×20: 300 mM (NH4)2SO4, 13 mM MgSO4, 1.4 mM CaCl2, 0.4 mM FeSO4·7H2O, 0.26 mM MnSO4·H2O. AT media: 50 ml×20 AT-buffer, 50 ml×20 AT-salts, 10 ml 50% (w/v) glucose, add 890 ml to final volume of 1 liter.) For O.N. at 30° C. in an orbital shaker. Into preheated water agar with 25 ml AT-buffer, and 60 μg/ml X-gal and 5 nM 3-oxo-c8 (both from Sigma-Aldrich) 25 ml of the starter was added. Then, that mixture was loaded on the TLC in glass plate for O.N. incubation in 30° C. The next day the inhibition zone was measured. The bacteria produce blue pigment during QS and when QS is inhibited no pigment is produced. KYC55 (pJZ372) (pJZ384) (pJZ410) preservation in tetracycline (1 μg/ml), spectinomycin (100 μg/ml), gentamicin (100 μg/ml) (all antibiotics from Sigma Aldrich) in AT media O.N. then centrifuged and suspend in 15% glycerol frozen and maintained at −80° C.

[2] = test system: Chromobacterium violaceum (CV026); assay: Quorum sensing inhibition test with bio-reporter CV026 (TLC overlay); format: cell-based; details: for Degree of QSI of CV026: Table 1, coumaperine derivatives, 40 mM in ~20 μL acetonitrile dried on TLC plate, overnight, color intensity; for QSI activity against CV026, in words: running text; as to Degree of QSI of CV026: key: −: no inhibition; +: low inhibition; ++: medium inhibition; +++: strong inhibition; as to Degree of quorum sensing inhibition (QSI), CV026: key: −: no inhibition; +: low inhibition; ++: medium inhibition; +++: strong inhibition
Experimental: as §3

NF-kB = assay: NF-kB-luciferase reporter gene assay in L428 cells; format: cell-based, human; details: Table 6 summary; also: key: +: active; −: inactive
Experimental: FIG. 7 includes a vertical bar graph showing a dose response of NF-kB activation according to an NF-kB reporter gene luciferase assay. L428 cells were stably transfected with the NF-kB luciferase reporter gene. The cells were incubated with the compounds at different concentrations for 2 hours. […] The results represent the percentage of NF-kB activation as compared to vehicle (DMSO) treated cells. All samples were normalized to protein concentration. Mean+SD, Two-way ANOVA and Tukey's multiple comparison test. 95% confidence interval (p-values *≤0.0332, **≤0.0021, ***≤0.0002).
L428 cells stable transfectants with the luciferase NF-kB-Luc reporter gene were generated previously described (Ozer et al., 2009), and were maintained in 500 μg/ml of G418 (G418 disulfate salt, Sigma-Aldrich). The cells (5×10^5 /well in triplicate) were incubated for 2 hrs. in 1 ml of medium containing the solvent (DMSO) or different concentrations of the molecules tested. Cells were then harvested, lysed, and monitored by a luciferase reporter assay kit (Promega) according to the manufacturer's instructions. Measurements were carried out using a luminometer (Promega, GLOMAX™ 20/20 Luminometer). Data were normalized to the protein concentration in each lysate as measured by the Bradford method (BioRad) and normalized to the control. Experiments were repeated at least three times.

[3] = test system: quorum sensing (CV026 and KYC55); assay: Quorum sensing inhibition, overall statement over the bio-reporter bacteria; format: cell-based; details: for QSI: Table 6 summary; for QSI activity overall, in words: running text
Experimental: as §3
All the synthesized compounds were evaluated for quorum sensing inhibition against two bioreporter bacteria strains, Chromobacterium violaceum (CV026) and Agrobacterium tumefaciens (KYC55) and the results are summarized in Table 1.

[4] = test system: gram-positive and gram-negative bacteria; assay: Antibacterial activity, overall statement (diffusion discs test); format: cell-based; details: for Antibacterial: Table 6 summary; for Antibacterial activity, in words: running text
Experimental: All derivatives were dissolved in acetonitrile to a final concentration of 40 mM. Twenty (20) μl were loaded onto Whatman filter paper discs and dried. Bacillus subtilis, Staphylococcus aureus, and Acinetobacter baumannii were grown in LB (Lenox) O.N. One hundred (100) μl from the starter culture was plated on LB agar (Miller) dishes. Streptococcus sobrinus, and Streptococcus mutans grown in Brain Heary Infusion (BHI, Himedia) O.N. were similarly plated on BHI agar dishes. Discs were laid and incubated O.N. in 37° C. and the diameter of inhibition of bacterial growth was measured.
The antibacterial activities of derivatives showing QSI are outlined in Table 4. […] Similar to that idea, synthetic derivatives of furanon (product of marine algae) shown in-vivo QSI activity without antibacterial activity followed by immune response of the infected animal. Phenolic compounds decrease QS and virulence in PA01 and Chromobacterium violaceum. There is increasing number of studies, searching for compounds that targeting non-vital processes to combat bacteria.

in vitro = assay: in vitro
Experimental: as §1, §2

[5] = Table 2, piperlongumine derivatives

Compound	Cytotoxic activity, in words (L428 cells)	LC50 (L428 cells)	Degree of QSI of KYC55 [1]	Degree of QSI of CV026 [2]	QSI activity against CV026, in words [2]	QSI activity against KYC55, in words [1]	Anti-inflammatory (NF-kB)	QSI [3]	Antibacterial [4]	QSI activity overall, in words [3]	other results
COc1ccc(/C=C/C(=O)N2CCCCC2)cc1 [CP-282]	no cytotoxic activity	Non-toxic	++	+++	more effective against CV026 than KYC55						
COc1cc(/C=C/C(=O)NCc2ccccc2)cc(OC)c1OC [PL-20, (E)-N-benzyl-3-(3,4,5-trimethoxyphenyl)acrylamide]		Non-toxic			moderate activity	inactive					Degree of quorum sensing inhibition (QSI), KYC55 [1, 5]: −; Degree of quorum sensing inhibition (QSI), CV026 [2, 5]: ++
COc1cc(/C=C/C=C/C(=O)N2CCCCC2)ccc1O [CP-205]	no cytotoxic activity	Non-toxic	++	++	moderate activity; also recorded: moderately active	moderate activity; also recorded: moderately active	+	+	−		Cytotoxic (L428 cells): −
COc1ccc(/C=C/C(=O)N2CCCCC2)cc1OC [CP-289]	no cytotoxic activity	Non-toxic	+++	+		more effective against KYC55 than CV026					
O=C(/C=C/c1ccc([N+](=O)[O-])cc1)N1CCCCC1 [CP-286]		Non-toxic	++	+	low	moderate	+	+	−	anti QS activity	Cytotoxic (L428 cells): −; Antibacterial activity, in words [4]: did not show antibiotic activity
COc1cc(/C=C/C(=O)N2CCC=CC2=O)cc(OC)c1OC [PL, Piperlongumine, reference compound]					inactive	inactive				inactive	Degree of quorum sensing inhibition (QSI), KYC55 [1, 5]: −; Degree of quorum sensing inhibition (QSI), CV026 [2, 5]: −
Piperine [reference compound]			−	−	inactive	inactive				do not inhibit	
COc1cc(CCC(=O)CC(=O)CCc2ccc(O)c(OC)c2)ccc1O [HCU, Tetrahydrocurcumin]							+	+	−		CC50 at 48 h (in vitro): 102 µM; Cytotoxic activity, in words (L428 cells; L428 cells): cytotoxic; Cytotoxic (L428 cells; Table 6 summary): +; Degree of quorum sensing inhibition (QSI), KYC55 ([1]; Table 3, curcumin derivatives): +++; Degree of quorum sensing inhibition (QSI), CV026 ([2]; Table 3, curcumin derivatives): +
COc1ccc(/C=C/C=C/C(=O)N2CCCCC2)cc1 [CP-38, (2E,4E)-5-(4-methoxyphenyl)-1-(piperidin-1-yl)penta-2,4-dien-1-one]			+	++	moderate	low					CC50 at 48 h (in vitro; human, LC50): 47.4 µM
O=C(/C=C/c1ccc(F)cc1)N1CCCCC1 [CP-273]		Non-toxic	−	+	low activity	inactive				low QSI	
O=C(/C=C/c1ccc2c(c1)OCO2)N1CCCCC1 [CP-215, (E)-3-(benzo[d][1,3]dioxol-5-yl)-1-(piperidin-1-yl)prop-2-en-1-one]		Non-toxic			highly active	highly active	+	+	−	active; also recorded: strong	Cytotoxic (L428 cells): −; QSI activity overall, in words ([3]; listed as CP215): anti QS activity; Antibacterial activity, in words [4]: did not show antibiotic activity
O=C(/C=C/C=C/C=C/c1ccc2c(c1)OCO2)N1CCCCC1 [CP-155, (2E,4E,6E)-7-(benzo[d][1,3]dioxol-5-yl)-1-(piperidin-1-yl)hepta-2,4,6-trien-1-one]			−	−	inactive	inactive				do not inhibit	
O=C(/C=C/c1ccc2c(c1)OCO2)N1CCCCC1 [CP-270, (E)-3-(benzo)-1-(piperidin-1-yl)prop-2-en-1-one]	no cytotoxic activity	Non-toxic	+++	+++	highly QSI active	highly QSI active					Antibacterial activity, in words [4]: did not
O=C(/C=C/c1ccc(O)c(O)c1)N1CCCCC1 [CP-237, (E)-3-(3,4-dihydroxyphenyl)-1-(piperidin-1-yl)prop-2-en-1-one]			++	++	moderate activity	moderate activity					
CC(=O)Oc1ccc(/C=C/C=C/C(=O)N2CCCCC2)cc1 [CP-158, 4-((1E,3E)-5-oxo-5-(piperidin-1-yl)penta-1,3-dienyl)phenyl acetate]	not cytotoxic		++	+++	more effective against CV026 than KYC55		+	+	−	anti QS activity	CC50 at 48 h (in vitro; human, LC50): 285 µM; Cytotoxic (L428 cells): +; Antibacterial activity, in words [4]: did not show antibiotic activity
